Test results published in ChEMBL document CHEMBL4138123, “Design, synthesis and biological evaluation of novel pyrazolochalcones as potential modulators of PI3K/Akt/mTOR pathway and inducers of apoptosis in breast cancer cells” (Eur J Med Chem, 2017).

Experiments:
Format in all cases: functional
MDA-MB-468 = assay: Cytotoxicity against human MDA-MB-468 cells assessed as cell growth at 10 uM after 48 hrs by sulforhodamine B assay relative to control; conditions: MDA-MB-468, 48 h, read-out: Activity
NCI-H522 = assay: Cytotoxicity against human NCI-H522 cells assessed as cell growth at 0.1 uM after 48 hrs by sulforhodamine B assay relative to control; conditions: NCI-H522, 48 h, read-out: Activity
HCC 2998 = assay: Cytotoxicity against human HCC2998 cells assessed as cell growth at 1 uM after 48 hrs by sulforhodamine B assay relative to control; conditions: HCC 2998, 48 h, read-out: Activity
CCRF-CEM = assay: Cytotoxicity against human CCRF-CEM cells assessed as cell growth at 0.01 uM after 48 hrs by sulforhodamine B assay relative to control; conditions: read-out: Activity
MDA-MB-435 = assay: Cytotoxicity against human MDA-MB-435 cells assessed as cell growth at 100 uM after 48 hrs by sulforhodamine B assay relative to control; conditions: MDA-MB-435, 48 h, read-out: Activity
MOLT-4 [1] = assay: Cytotoxicity against human MOLT4 cells assessed as cell growth at 100 uM after 48 hrs by sulforhodamine B assay relative to control; conditions: MOLT-4, 48 h, read-out: Activity
U-251 = assay: Cytotoxicity against human U251 cells assessed as cell growth at 0.01 uM after 48 hrs by sulforhodamine B assay relative to control; conditions: U-251, 48 h, read-out: Activity
M14 = assay: Cytotoxicity against human M14 cells assessed as cell growth at 100 uM after 48 hrs by sulforhodamine B assay relative to control; conditions: M14, 48 h, read-out: Activity
HL-60(TB) [2] = assay: Cytotoxicity against human HL-60(TB) cells assessed as cell growth at 1 uM after 48 hrs by sulforhodamine B assay relative to control; conditions: HL-60, 48 h, read-out: Activity
MCF7 = assay: Cytotoxicity against human MCF7 cells assessed as growth inhibition after 48 hrs by sulforhodamine B assay; conditions: MCF7, 48 h
786-0 = assay: Cytotoxicity against human 786-0 cells assessed as cell growth at 0.01 uM after 48 hrs by sulforhodamine B assay relative to control; conditions: 786-0, 48 h, read-out: Activity
UACC-257 [3] = assay: Cytotoxicity against human UACC257 cells assessed as growth inhibition after 48 hrs by sulforhodamine B assay; conditions: UACC-257, 48 h
ACHN = assay: Cytotoxicity against human ACHN cells assessed as cell growth at 10 uM after 48 hrs by sulforhodamine B assay relative to control; conditions: read-out: Activity
NCI-H226 = assay: Cytotoxicity against human NCI-H226 cells assessed as growth inhibition after 48 hrs by sulforhodamine B assay; conditions: NCI-H226, 48 h
RPMI-8226 [4] = assay: Cytotoxicity against human RPMI8226 cells assessed as cell growth at 100 uM after 48 hrs by sulforhodamine B assay relative to control; conditions: RPMI-8226, 48 h, read-out: Activity
UACC-257 [5] = assay: Cytotoxicity against human UACC257 cells assessed as cell growth at 10 uM after 48 hrs by sulforhodamine B assay relative to control; conditions: UACC-257, 48 h, read-out: Activity
TK-10 [6] = assay: Cytotoxicity against human TK10 cells assessed as cell growth at 0.1 uM after 48 hrs by sulforhodamine B assay relative to control; conditions: TK-10, 48 h, read-out: Activity
T47D = assay: Cytotoxicity against human T47D cells assessed as cell growth at 1 uM after 48 hrs by sulforhodamine B assay relative to control; conditions: read-out: Activity
SN12C = assay: Cytotoxicity against human SN12C cells assessed as cell growth at 100 uM after 48 hrs by sulforhodamine B assay relative to control; conditions: read-out: Activity
TK-10 [7] = assay: Cytotoxicity against human TK10 cells assessed as growth inhibition after 48 hrs by sulforhodamine B assay; conditions: TK-10, 48 h
MOLT-4 [8] = assay: Cytotoxicity against human MOLT4 cells assessed as growth inhibition after 48 hrs by sulforhodamine B assay; conditions: MOLT-4, 48 h; for CC50: read-out: LC50 (the source's name)
PC-3 = assay: Cytotoxicity against human PC3 cells assessed as cell growth at 10 uM after 48 hrs by sulforhodamine B assay relative to control; conditions: PC-3, 48 h, read-out: Activity
IGROV-1 [9] = assay: Cytotoxicity against human IGROV1 cells assessed as cell growth at 0.1 uM after 48 hrs by sulforhodamine B assay relative to control; conditions: IGROV-1, 48 h, read-out: Activity
SNB-19 [10] = assay: Cytotoxicity against human SNB19 cells assessed as cell growth at 1 uM after 48 hrs by sulforhodamine B assay relative to control; conditions: SNB-19, 48 h, read-out: Activity
SF-268 = assay: Cytotoxicity against human SF268 cells assessed as cell growth at 100 uM after 48 hrs by sulforhodamine B assay relative to control; conditions: SF-268, 48 h, read-out: Activity
RPMI-8226 [11] = assay: Cytotoxicity against human RPMI8226 cells assessed as cell growth at 10 uM after 48 hrs by sulforhodamine B assay relative to control; conditions: RPMI-8226, 48 h, read-out: Activity
HOP-62 = assay: Cytotoxicity against human HOP62 cells assessed as cell growth at 0.01 uM after 48 hrs by sulforhodamine B assay relative to control; conditions: HOP-62, 48 h, read-out: Activity
NCI-H322M [12] = assay: Cytotoxicity against human NCI-H322M cells assessed as cell growth at 0.01 uM after 48 hrs by sulforhodamine B assay relative to control; conditions: read-out: Activity
NCI-H322M [13] = assay: Cytotoxicity against human NCI-H322M cells assessed as cell growth at 1 uM after 48 hrs by sulforhodamine B assay relative to control; conditions: read-out: Activity
SNB-19 [14] = assay: Cytotoxicity against human SNB19 cells assessed as cell growth at 0.1 uM after 48 hrs by sulforhodamine B assay relative to control; conditions: SNB-19, 48 h, read-out: Activity
NCI/ADR-RES = assay: Cytotoxicity against human NCI/ADR-RES cells assessed as cell growth at 0.01 uM after 48 hrs by sulforhodamine B assay relative to control; conditions: read-out: Activity
HL-60(TB) [15] = assay: Cytotoxicity against human HL-60(TB) cells assessed as cell growth at 100 uM after 48 hrs by sulforhodamine B assay relative to control; conditions: HL-60, 48 h, read-out: Activity
HCT-15 = assay: Cytotoxicity against human HCT15 cells assessed as cell growth at 100 uM after 48 hrs by sulforhodamine B assay relative to control; conditions: HCT-15, 48 h, read-out: Activity
NCI-H23 = assay: Cytotoxicity against human NCI-H23 cells assessed as cell growth at 10 uM after 48 hrs by sulforhodamine B assay relative to control; conditions: NCI-H23, 48 h, read-out: Activity
SNB-19 [16] = assay: Cytotoxicity against human SNB19 cells assessed as growth inhibition after 48 hrs by sulforhodamine B assay; conditions: SNB-19, 48 h; for CC50: read-out: LC50 (the source's name)
IGROV-1 [17] = assay: Cytotoxicity against human IGROV1 cells assessed as cell growth at 0.01 uM after 48 hrs by sulforhodamine B assay relative to control; conditions: IGROV-1, 48 h, read-out: Activity

COc1cc(-c2cc(/C=C/C(=O)c3ccc(F)c(F)c3)[nH]n2)cc(OC)c1OC
growth at 10 µM (MDA-MB-468): -2% | growth at 0.1 µM (NCI-H522): 99% | growth at 1 µM (HCC 2998): 99% | growth at 0.01 µM (CCRF-CEM): 99% | growth at 100 µM (MDA-MB-435): -34% | growth at 100 µM (MOLT-4 [1]): -14% | growth at 0.01 µM (U-251): 97% | growth at 100 µM (M14): -38% | growth at 1 µM (HL-60(TB) [2]): 101% | LC50 (MCF7): > 100 µM | TGI (MCF7): 12.3 µM | growth at 0.01 µM (786-0): 95% | LC50 (UACC-257 [3]): > 100 µM | TGI (UACC-257 [3]): 6.28 µM | growth at 10 µM (ACHN): 2% | LC50 (concentration killing 50% of cells) (NCI-H226): 66 µM | TGI (NCI-H226): 15.8 µM | growth at 100 µM (RPMI-8226 [4]): -36% | growth at 10 µM (UACC-257 [5]): -18% | growth at 0.1 µM (TK-10 [6]): 88% | growth at 1 µM (T47D): 76% | growth at 100 µM (SN12C): -22% | LC50 (TK-10 [7]): > 100 µM | TGI (TK-10 [7]): 7.42 µM | TGI (MOLT-4 [8]): 9.09 µM | CC50 (MOLT-4 [8]): > 100 µM | growth at 10 µM (PC-3): -23% | growth at 0.1 µM (IGROV-1 [9]): 97% | growth at 1 µM (SNB-19 [10]): 82% | growth at 100 µM (SF-268): 1% | growth at 10 µM (RPMI-8226 [11]): -21% | growth at 0.01 µM (HOP-62): 100% | growth at 0.01 µM (NCI-H322M [12]): 94% | growth at 1 µM (NCI-H322M [13]): 86% | growth at 0.1 µM (SNB-19 [14]): 87% | growth at 0.01 µM (NCI/ADR-RES): 100% | growth at 100 µM (HL-60(TB) [15]): -49% | growth at 100 µM (HCT-15): 2% | growth at 10 µM (NCI-H23): -7% | TGI (SNB-19 [16]): > 100 µM | CC50 (SNB-19 [16]): > 100 µM | growth at 0.01 µM (IGROV-1 [17]): 97%

COc1ccc(-c2cc(/C=C/C(=O)c3ccc(N)cc3)[nH]n2)cc1OC
growth at 10 µM (MDA-MB-468): -65% | growth at 0.1 µM (NCI-H522): 95% | growth at 1 µM (HCC 2998): 105% | growth at 0.01 µM (CCRF-CEM): 97% | growth at 100 µM (MDA-MB-435): -72% | growth at 100 µM (MOLT-4 [1]): -22% | growth at 0.01 µM (U-251): 95% | growth at 100 µM (M14): -90% | growth at 1 µM (HL-60(TB) [2]): 97% | GI50 (MCF7): 2.28 µM | LC50 (MCF7): 71.2 µM | TGI (MCF7): 8.48 µM | growth at 0.01 µM (786-0): 91% | GI50 (UACC-257 [3]): 6.46 µM | LC50 (UACC-257 [3]): 45.7 µM | TGI (UACC-257 [3]): 19.5 µM | growth at 10 µM (ACHN): -82% | GI50 (NCI-H226): 2.32 µM | LC50 (concentration killing 50% of cells) (NCI-H226): 76.2 µM | TGI (NCI-H226): 7.38 µM | growth at 100 µM (RPMI-8226 [4]): -40% | growth at 10 µM (UACC-257 [5]): 39% | growth at 0.1 µM (TK-10 [6]): 100% | growth at 1 µM (T47D): 87% | growth at 100 µM (SN12C): -90% | GI50 (TK-10 [7]): 1.09 µM | LC50 (TK-10 [7]): 48.7 µM | TGI (TK-10 [7]): 23 µM | GI50 (MOLT-4 [8]): 3.11 µM | TGI (MOLT-4 [8]): 16.5 µM | CC50 (MOLT-4 [8]): > 100 µM | growth at 10 µM (PC-3): 20% | growth at 0.1 µM (IGROV-1 [9]): 106% | growth at 1 µM (SNB-19 [10]): 84% | growth at 100 µM (SF-268): -80% | growth at 10 µM (RPMI-8226 [11]): -20% | growth at 0.01 µM (HOP-62): 83% | growth at 0.01 µM (NCI-H322M [12]): 96% | growth at 1 µM (NCI-H322M [13]): 95% | growth at 0.1 µM (SNB-19 [14]): 90% | growth at 0.01 µM (NCI/ADR-RES): 102% | growth at 100 µM (HL-60(TB) [15]): 3% | growth at 100 µM (HCT-15): -71% | growth at 10 µM (NCI-H23): 21% | GI50 (SNB-19 [16]): 4.36 µM | TGI (SNB-19 [16]): 18 µM | CC50 (SNB-19 [16]): 46.1 µM | growth at 0.01 µM (IGROV-1 [17]): 106%
